According to PubChem BioAssay AID2060889 (Molecular Pharmacology Branch, DTP, NCI, 2025):
pIC50: −log10 of the molar value. Blank lines part the entries; values can stand above or below the compound they belong to.

System: LG0567-F671-PDC complex spheroids viability
Experiment: Anticancer human tumor LG0567-F671-PDC patient-derived lung adenocarcinoma cell line growth inhibition [RAS]
Settings: for viability, T/C: stronger effect = lower value
Summary of the method: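 Agents were tested in combination matrices in half-log decrements from a top concentration at or near clinical Cmax (10 microM if undetermined). Targets were multi-cell spheroids of tumour lines plus HUVEC and MSC stromal cells.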

[1] = curve of first compound, second compound 0.000949 µM
[2] = curve of first compound, second compound 0.003 µM
[3] = curve of first compound, second compound 0.00949 µM
[4] = curve of first compound, second compound 0.03 µM
[5] = curve of first compound, second compound 0.0949 µM
[6] = curve of first compound, second compound 0.3 µM
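Further: spheroids exposed to compound for seven days before readout.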
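Wherever pIC50 is given: luminescence signal used as a proxy for viable cells.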

- pIC50 [1]: > 9.02
- pIC50 [2]: > 9.02
- pIC50 [3]: > 9.02
- pIC50 [4]: > 9.02
- pIC50 [5]: > 9.02
- pIC50 [6]: > 9.02
Structure (SMILES): CC1(C)CCC(Nc2ncc(C(F)(F)F)c(-c3c[nH]c4c(P(C)(C)=O)c(C#N)ccc34)n2)CN1 (centres undefined) + CCn1c(-c2cc(N3CCN(C)CC3)cnc2C(C)OC)c2c3cc(ccc31)-c1csc(n1)CC(NC(=O)C1CC1C)C(=O)N1CCCC(N1)C(=O)OCC(C)(C)C2
- viability, T/C (second compound 0.000949 µM, first compound 0.000949 µM): 18.6%
- viability, T/C (second compound 0.000949 µM, first compound 0.003 µM): 17.4%
- viability, T/C (second compound 0.000949 µM, first compound 0.00949 µM): 15.6%
- viability, T/C (second compound 0.000949 µM, first compound 0.03 µM): 18.6%
- viability, T/C (second compound 0.000949 µM, first compound 0.0949 µM): 19.4%
- viability, T/C (second compound 0.000949 µM, first compound 0.3 µM): 20.3%
- viability, T/C (second compound 0.003 µM, first compound 0.000949 µM): 9.04%
- viability, T/C (second compound 0.003 µM, first compound 0.003 µM): 8.93%
- viability, T/C (second compound 0.003 µM, first compound 0.00949 µM): 9.61%
- viability, T/C (second compound 0.003 µM, first compound 0.03 µM): 8.68%
- viability, T/C (second compound 0.003 µM, first compound 0.0949 µM): 10.7%
- viability, T/C (second compound 0.003 µM, first compound 0.3 µM): 11.1%
- viability, T/C (second compound 0.00949 µM, first compound 0.000949 µM): 5.65%
- viability, T/C (second compound 0.00949 µM, first compound 0.003 µM): 5.79%
- viability, T/C (second compound 0.00949 µM, first compound 0.00949 µM): 5.79%
- viability, T/C (second compound 0.00949 µM, first compound 0.03 µM): 6.44%
- viability, T/C (second compound 0.00949 µM, first compound 0.0949 µM): 6.98%
- viability, T/C (second compound 0.00949 µM, first compound 0.3 µM): 7.15%
- viability, T/C (second compound 0.03 µM, first compound 0.000949 µM): 4.09%
- viability, T/C (second compound 0.03 µM, first compound 0.003 µM): 4.19%
- viability, T/C (second compound 0.03 µM, first compound 0.00949 µM): 4.86%
- viability, T/C (second compound 0.03 µM, first compound 0.03 µM): 4.81%
- viability, T/C (second compound 0.03 µM, first compound 0.0949 µM): 5.36%
- viability, T/C (second compound 0.03 µM, first compound 0.3 µM): 5.18%
- viability, T/C (second compound 0.0949 µM, first compound 0.000949 µM): 2.85%
- viability, T/C (second compound 0.0949 µM, first compound 0.003 µM): 3.65%
- viability, T/C (second compound 0.0949 µM, first compound 0.00949 µM): 4.21%
- viability, T/C (second compound 0.0949 µM, first compound 0.03 µM): 4.25%
- viability, T/C (second compound 0.0949 µM, first compound 0.0949 µM): 4.38%
- viability, T/C (second compound 0.0949 µM, first compound 0.3 µM): 4.66%
- viability, T/C (second compound 0.3 µM, first compound 0.000949 µM): 2.87%
- viability, T/C (second compound 0.3 µM, first compound 0.003 µM): 2.91%
- viability, T/C (second compound 0.3 µM, first compound 0.00949 µM): 3.44%
- viability, T/C (second compound 0.3 µM, first compound 0.03 µM): 3.64%
- viability, T/C (second compound 0.3 µM, first compound 0.0949 µM): 4.02%
- viability, T/C (second compound 0.3 µM, first compound 0.3 µM): 3.88%

- pIC50 (curve of compound): < 5.00
Structure (SMILES): CC(C)NCC(C(=O)N1CCN(c2ncnc3c2C(C)CC3O)CC1)c1ccc(Cl)cc1 (centres undefined)
- viability, T/C (compound 0.0316 µM): 101% [middle of 4 runs]
- viability, T/C (compound 0.1 µM): 91.3% [middle of 4 runs]
- viability, T/C (compound 0.316 µM): 77.4% [middle of 4 runs]
- viability, T/C (compound 1 µM): 61.6% [middle of 4 runs]
- viability, T/C (compound 10 µM): 63.5% [middle of 4 runs]

- IC50 (curve of compound): 26.9 nM [middle of 4 runs]
Structure (SMILES): CCc1c2c(nc3ccc(O)cc13)-c1cc3c(c(=O)n1C2)COC(=O)[C@]3(O)CC
- viability, T/C (compound 0.000949 µM): 93.3% [middle of 4 runs]
- viability, T/C (compound 0.003 µM): 79% [middle of 4 runs]
- viability, T/C (compound 0.00949 µM): 65.1% [middle of 4 runs]
- viability, T/C (compound 0.03 µM): 48.5% [middle of 4 runs]
- viability, T/C (compound 0.0949 µM): 27.1% [middle of 4 runs]
- viability, T/C (compound 0.3 µM): 7.59% [middle of 4 runs]

The remaining lines, values behind:

Structure (SMILES): O=C(c1ccc(F)c(F)c1Nc1ccc(I)cc1F)N1CC(O)([C@@H]2CCCCN2)C1
- viability, T/C (compound 0.00316 µM): 85.1% [middle of 4 runs]
- viability, T/C (compound 0.01 µM): 58.9% [middle of 4 runs]
- viability, T/C (compound 0.0316 µM): 39.8% [middle of 4 runs]
- viability, T/C (compound 0.1 µM): 24% [middle of 4 runs]
- viability, T/C (compound 0.316 µM): 11.1% [middle of 4 runs]
- viability, T/C (compound 1 µM): 3.21% [middle of 4 runs]
- IC50 (curve of compound): 17.3 nM [middle of 4 runs]

Structure (SMILES): Nc1ccn(C2OC(CO)C(O)C2(F)F)c(=O)n1 (centres undefined) + CCn1c(-c2cccnc2C(C)OC)c2c3cc(ccc31)N1CCOC(CC(NC(=O)C(C(C)C)N(C)C(=O)C3(F)CCN(C(=O)C#CC(C)(C)N(C)C)CC3)C(=O)N3CCCC(N3)C(=O)OCC(C)(C)C2)C1
- pIC50 [1]: > 8.50
- pIC50 [2]: > 8.50
- pIC50 [3]: > 8.50
- pIC50 [4]: > 8.50
- pIC50 [5]: > 8.50
- pIC50 [6]: > 8.50
- viability, T/C (second compound 0.000949 µM, first compound 0.00316 µM): 15.8%
- viability, T/C (second compound 0.000949 µM, first compound 0.01 µM): 15.7%
- viability, T/C (second compound 0.000949 µM, first compound 0.0316 µM): 14.1%
- viability, T/C (second compound 0.000949 µM, first compound 0.1 µM): 14.4%
- viability, T/C (second compound 0.000949 µM, first compound 0.316 µM): 15.3%
- viability, T/C (second compound 0.000949 µM, first compound 1 µM): 13.8%
- viability, T/C (second compound 0.003 µM, first compound 0.00316 µM): 15.6%
- viability, T/C (second compound 0.003 µM, first compound 0.01 µM): 15.7%
- viability, T/C (second compound 0.003 µM, first compound 0.0316 µM): 13.5%
- viability, T/C (second compound 0.003 µM, first compound 0.1 µM): 14.8%
- viability, T/C (second compound 0.003 µM, first compound 0.316 µM): 15.6%
- viability, T/C (second compound 0.003 µM, first compound 1 µM): 11.7%
- viability, T/C (second compound 0.00949 µM, first compound 0.00316 µM): 12.5%
- viability, T/C (second compound 0.00949 µM, first compound 0.01 µM): 14.3%
- viability, T/C (second compound 0.00949 µM, first compound 0.0316 µM): 13.6%
- viability, T/C (second compound 0.00949 µM, first compound 0.1 µM): 13.2%
- viability, T/C (second compound 0.00949 µM, first compound 0.316 µM): 14.1%
- viability, T/C (second compound 0.00949 µM, first compound 1 µM): 14.1%
- viability, T/C (second compound 0.03 µM, first compound 0.00316 µM): 12.3%
- viability, T/C (second compound 0.03 µM, first compound 0.01 µM): 13.7%
- viability, T/C (second compound 0.03 µM, first compound 0.0316 µM): 13.8%
- viability, T/C (second compound 0.03 µM, first compound 0.1 µM): 15%
- viability, T/C (second compound 0.03 µM, first compound 0.316 µM): 14%
- viability, T/C (second compound 0.03 µM, first compound 1 µM): 13%
- viability, T/C (second compound 0.0949 µM, first compound 0.00316 µM): 11.1%
- viability, T/C (second compound 0.0949 µM, first compound 0.01 µM): 10.2%
- viability, T/C (second compound 0.0949 µM, first compound 0.0316 µM): 11.4%
- viability, T/C (second compound 0.0949 µM, first compound 0.1 µM): 10.1%
- viability, T/C (second compound 0.0949 µM, first compound 0.316 µM): 12.1%
- viability, T/C (second compound 0.0949 µM, first compound 1 µM): 11.6%
- viability, T/C (second compound 0.3 µM, first compound 0.00316 µM): 10.6%
- viability, T/C (second compound 0.3 µM, first compound 0.01 µM): 11.3%
- viability, T/C (second compound 0.3 µM, first compound 0.0316 µM): 9.37%
- viability, T/C (second compound 0.3 µM, first compound 0.1 µM): 9.44%
- viability, T/C (second compound 0.3 µM, first compound 0.316 µM): 9.59%
- viability, T/C (second compound 0.3 µM, first compound 1 µM): 10%
